# Source: ChEMBL document CHEMBL1201862, “PubChem BioAssay data set” (2004)
#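 Growth conditions: 96-well plates. Treatment: test compound, 48 hours, 5 concentrations. Analysis: linear interpolation between bracketing concentrations; unreached endpoints set to highest concentration. GI50 marks 50% less growth.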 Activity calls are given as the source filed them. Cut-off read from the data, not from the text of the source: active = GI50 up to about 1.1 µM and inactive = higher. Where a SMILES comes first, the peptide text is derived from it. The star is where a group is joined. Cbz = O=C(OCc1ccccc1)*
# Legend:
# Experiment in all cases: DTP human tumour cell line panel, 48 h
# [1] = test system: MDA-MB-435
# [2] = test system: OVCAR-5
# [3] = test system: CAKI-1
# [4] = test system: SNB-75
# [5] = test system: MOLT-4
# [6] = test system: M14
# [7] = test system: HCT-15
# [8] = test system: Malme-3M
# [9] = test system: OVCAR-3
# [10] = test system: NCI/ADR-RES
# [11] = test system: SW-620
# [12] = test system: HL-60
# [13] = test system: UO-31
# [14] = test system: HT-29
# [15] = test system: MCF7
# [16] = test system: SF-539
# [17] = test system: COLO 205
# [18] = test system: SK-OV-3
# [19] = test system: SF-268
# [20] = test system: T47D
SMILES,GI50 [1],GI50 [2],GI50 [3],GI50 [4],GI50 [5],GI50 [6],GI50 [7] [µM],GI50 [8],GI50 [9],GI50 [10],GI50 [11],GI50 [12],GI50 [13],GI50 [14],GI50 [15],GI50 [16],GI50 [17],GI50 [18],GI50 [19],GI50 [20]
Nc1nc2ccc(OCC(O)CN3CCCCC3)cc2[n+]([O-])n1 (stereo not drawn),> 100 µM (inactive),> 100 µM (inactive),> 100 µM (inactive),70.3 µM (inactive),> 100 µM (inactive),> 100 µM (inactive),> 100,> 100 µM (inactive),> 100 µM (inactive),> 100 µM (inactive),> 100 µM (inactive),> 100 µM (inactive),> 100 µM (inactive),> 100 µM (inactive),> 100 µM (inactive),> 100 µM (inactive),> 100 µM (inactive),,,
CCOC(=O)CNC(=O)C(C)NC(=O)C(NC(=O)OCc1ccccc1)C(C)C (stereo not drawn) (Cbz-Val-Ala-Gly-OEt; configuration not given here),> 100 µM (inactive),> 100 µM (inactive),> 100 µM (inactive),> 100 µM (inactive),32 µM (inactive),> 100 µM (inactive),> 100,> 100 µM (inactive),> 100 µM (inactive),> 100 µM (inactive),> 100 µM (inactive),,98.9 µM (inactive),> 100 µM (inactive),> 100 µM (inactive),> 100 µM (inactive),> 100 µM (inactive),> 100 µM (inactive),> 100 µM (inactive),
CCOC(=O)N/N=C(\CC)OCC,,> 100 µM (inactive),> 100 µM (inactive),> 100 µM (inactive),> 100 µM (inactive),> 100 µM (inactive),> 100,> 100 µM (inactive),> 100 µM (inactive),> 100 µM (inactive),,> 100 µM (inactive),> 100 µM (inactive),,> 100 µM (inactive),> 100 µM (inactive),> 100 µM (inactive),> 100 µM (inactive),> 100 µM (inactive),> 100 µM (inactive)
N#CC(C(=O)c1cccnc1Cl)c1nc2cc(C(F)(F)F)ccc2s1 (stereo not drawn),47.2 µM (inactive),33.9 µM (inactive),> 100 µM (inactive),25.3 µM (inactive),> 100 µM (inactive),50.8 µM (inactive),35.3,37.1 µM (inactive),> 100 µM (inactive),65.5 µM (inactive),47.1 µM (inactive),,39.8 µM (inactive),28.3 µM (inactive),,99.3 µM (inactive),44.2 µM (inactive),62.7 µM (inactive),64.9 µM (inactive),> 100 µM (inactive)
CC(=O)NC(NCCN)(c1ccccc1)c1ccccc1,> 100 µM (inactive),67.9 µM (inactive),,> 100 µM (inactive),> 100 µM (inactive),> 100 µM (inactive),> 100,> 100 µM (inactive),,> 100 µM (inactive),> 100 µM (inactive),> 100 µM (inactive),48 µM (inactive),> 100 µM (inactive),> 100 µM (inactive),> 100 µM (inactive),> 100 µM (inactive),> 100 µM (inactive),> 100 µM (inactive),
COc1ccc(/C=C\c2cc(OC)c(OC)c(OC)c2)cc1OC(=O)NCCN(C)C,< 0.0001 µM (active),0.00764 µM (active),0.0386 µM (active),0.000215 µM (active),0.000145 µM (active),0.000156 µM (active),0.000132,0.00284 µM (active),0.000107 µM (active),< 0.0001 µM (active),< 0.0001 µM (active),< 0.0001 µM (active),0.00411 µM (active),0.526 µM (active),0.00334 µM (active),0.000133 µM (active),0.215 µM (active),0.00339 µM (active),,
NC(=O)C(N)CC12CC3CC(CC(C3)C1)C2 (stereo not drawn),16 µM (inactive),22.8 µM (inactive),27.3 µM (inactive),32.7 µM (inactive),21 µM (inactive),19.3 µM (inactive),31.6,,,25.2 µM (inactive),33 µM (inactive),,21.7 µM (inactive),28.1 µM (inactive),20 µM (inactive),,,33.3 µM (inactive),22.4 µM (inactive),
CC1=NCC[N+]1(CCc1ccccc1)Cc1ccccc1 (stereo not drawn),,47.4 µM (inactive),,> 100 µM (inactive),,50.5 µM (inactive),> 100,20.4 µM (inactive),5.71 µM (inactive),> 100 µM (inactive),> 100 µM (inactive),16.6 µM (inactive),> 100 µM (inactive),12.5 µM (inactive),47.9 µM (inactive),,5.93 µM (inactive),> 100 µM (inactive),27.6 µM (inactive),> 100 µM (inactive)
COC(=O)C1CCC(C)CC1=O (stereo not drawn),,> 100 µM (inactive),> 100 µM (inactive),> 100 µM (inactive),> 100 µM (inactive),> 100 µM (inactive),> 100,> 100 µM (inactive),> 100 µM (inactive),,> 100 µM (inactive),> 100 µM (inactive),> 100 µM (inactive),> 100 µM (inactive),,> 100 µM (inactive),> 100 µM (inactive),> 100 µM (inactive),> 100 µM (inactive),
COc1cc2c3c(c1OC)-c1ccccc1C(C(OC(C)=O)c1ccccc1)C3N(C)CC2 (stereo not drawn),,> 100 µM (inactive),63 µM (inactive),31.9 µM (inactive),7.59 µM (inactive),51.2 µM (inactive),27.7,33.2 µM (inactive),43.4 µM (inactive),,65.3 µM (inactive),5.4 µM (inactive),57.1 µM (inactive),38.3 µM (inactive),,> 100 µM (inactive),30.3 µM (inactive),> 100 µM (inactive),93.8 µM (inactive),
CSc1nncc(-c2cc3c(c(SC)n2)CCC3)n1,> 100 µM (inactive),> 100 µM (inactive),40.7 µM (inactive),22.1 µM (inactive),,> 100 µM (inactive),> 100,,> 100 µM (inactive),69.5 µM (inactive),82.4 µM (inactive),> 100 µM (inactive),> 100 µM (inactive),> 100 µM (inactive),,,> 100 µM (inactive),> 100 µM (inactive),76 µM (inactive),
CCCCCCCCCCCCC(CC)CCCCC(=O)O (stereo not drawn),,> 100 µM (inactive),> 100 µM (inactive),> 100 µM (inactive),27 µM (inactive),> 100 µM (inactive),> 100,> 100 µM (inactive),> 100 µM (inactive),,> 61.2 µM (inactive),> 63.1 µM (inactive),> 100 µM (inactive),> 65.6 µM (inactive),,> 44.6 µM (inactive),> 58.3 µM (inactive),> 100 µM (inactive),> 100 µM (inactive),
